Data published in article PMC6399351, “Cationic Intrinsically Disordered Antimicrobial Peptides (CIDAMPs) Represent a New Paradigm of Innate Defense with a Potential for Novel Anti-Infectives” (Scientific Reports, 2019).
≈ marks a conversion by molar mass, not a printed value. Read-outs that look alike come from different tables or passages of the source. Square brackets hold non-standard residues; d marks the D form. Ends that are not written are not given here. Peptide text beside a SMILES is read from it. * marks the point of attachment. Palmitoyl = CCCCCCCCCCCCCCCC(=O)*; Dab = NCC[C@H](N)C(=O)O

Key:
[1] = system: Staphylococcus aureus ATCC 43300; conditions: MRSA; CLSI, Mueller–Hinton broth, 5 × 10^5 CFU/mL, 18 h 37 °C, by CO-ADD
[2] = system: Acinetobacter baumannii ATCC 19606; test: CO-ADD MIC, broth microdilution (CLSI); format: cell-based; conditions: Mueller–Hinton broth, 5 × 10^5 CFU/mL, 18 h 37 °C, by CO-ADD
Excerpt: (§1) They were defined as the lowest peptide
(§2) Further details of the screening

[3] = system: Pseudomonas aeruginosa ATCC 27853; test: CO-ADD MIC, broth microdilution (CLSI); format: cell-based; conditions: Mueller–Hinton broth, 5 × 10^5 CFU/mL, 18 h 37 °C, by CO-ADD
Excerpt: as §1, §2

E. coli ATCC 25922 = test: CO-ADD MIC, broth microdilution (CLSI); format: cell-based, Escherichia coli; conditions: Mueller–Hinton broth, 5 × 10^5 CFU/mL, 18 h 37 °C, by CO-ADD
Excerpt: as §1, §2

S. aureus ATCC 6538 = conditions: for LD90 / LD99 (concentration of peptide which kills 99.0% of inoculum) / LD100: CFU assay
[4] = system: Candida albicans ATCC 90028; test: CO-ADD MIC, antifungal assay (CLSI); format: cell-based; conditions: Yeast Nitrogen Base broth, 24 h 35 °C, by CO-ADD
Protocol: (§3) Fungi strains were cultured for 3 days on Yeast Extract-Peptone Dextrose (YPD) agar at 30 °C. A yeast suspension of 1 × 10^6 to 5 × 10^6 cells/mL (as determined by OD530) was prepared from five colonies. These stock suspensions were diluted with Yeast Nitrogen Base (YNB) broth to a final concentration of 2.5 × 10^3 CFU/mL. […] Plates were covered and incubated at 35 °C for 24 h without shaking.

[5] = system: Cryptococcus neoformans ATCC 208821; test: CO-ADD MIC, antifungal assay (CLSI); format: cell-based; conditions: Yeast Nitrogen Base broth, 24 h 35 °C, by CO-ADD
Protocol: as §3

[6] = system: Klebsiella pneumonia ATCC 700603; conditions: MDR strain; CLSI, Mueller–Hinton broth, 5 × 10^5 CFU/mL, 18 h 37 °C, by CO-ADD
P. aeruginosa ATCC 10145 = conditions: CFU assay, 10 mM NaP, pH 5.5, 0.25% glucose
[7] = 10 mM NaP, pH 5.5, 0.25% glucose
[8] = 10 mM NaP, pH 7.2, 0.25% glucose
[9] = 10 mM NaP, pH 7.0, 0.25% glucose

Compound	Minimal inhibitory concentration (MIC) [1]	Minimal inhibitory concentration (MIC) [2]	Minimal inhibitory concentration (MIC) [3]	Minimal inhibitory concentration (MIC) (E. coli ATCC 25922)	LD90 (S. aureus ATCC 6538; [7])	LD99 (concentration of peptide which kills 99.0% of inoculum) (S. aureus ATCC 6538; [7])	LD90 (S. aureus ATCC 6538; value in molar units)	Minimal inhibitory concentration (MIC) [4]	Minimal inhibitory concentration (MIC) [5]	Minimal inhibitory concentration (MIC) [6]	LD90 (S. aureus ATCC 6538; 10 mM NaP, pH 7.3, 1% TSB)	LD99 (concentration of peptide which kills 99.0% of inoculum) (S. aureus ATCC 6538; 10 mM NaP, pH 7.3, 1% TSB)	LD100 (S. aureus ATCC 6538; [7])	LD90 (S. aureus ATCC 6538; [8])	LD100 (S. aureus ATCC 6538; [8])	LD90 (P. aeruginosa ATCC 10145)	LD100 (P. aeruginosa ATCC 10145)	LD90 (S. aureus ATCC 6538; [9])	LD100 (S. aureus ATCC 6538; [9])	S. aureus ATCC 6538-cidal activity (S. aureus ATCC 6538; pH 7.5, at concentrations >8 µM and <0.1 µM (antibiotic paradox))
CCCCCCCCCCCCCCCC(=O)NCC(=O)N[C@@H](CCCNC(=N)N)C(=O)NCC(=O)N[C@@H](CCCNC(=N)N)C(=O)O [Pal-GR4] (Palmitoyl-GRGR-OH)	8 µg/mL (≈ 11.7 µM)	>32 µg/mL	>32 µg/mL	>32 µg/mL	2.35 µg/mL	4.7 µg/mL	3.4 µM	8 µg/mL (≈ 11.7 µM)	8 µg/mL (≈ 11.7 µM)	>32 µg/mL										
CCCCCCCCCCCCCCCC(=O)NCC(=O)N[C@@H](CCCNC(=N)N)C(=O)N[C@@H](CCCNC(=N)N)C(=O)NCC(=O)NCC(=O)N[C@@H](CCCNC(=N)N)C(=O)NCC(=O)NCC(=O)N[C@@H](CCCNC(=N)N)C(=O)NCC(=O)N[C@@H](CCCNC(=N)N)C(=O)O [Pal-GR11] (Palmitoyl-GRRGGRGGRGR-OH)	4 µg/mL (≈ 2.9 µM)	8 µg/mL (≈ 5.8 µM)	16 µg/mL (≈ 11.6 µM)	8 µg/mL (≈ 5.8 µM)				4 µg/mL (≈ 2.9 µM)	4 µg/mL (≈ 2.9 µM)	>32 µg/mL	0.3 µg/mL	1.18 µg/mL								
SHHRHFRSHQCRR [LCE-3C55-67]	32 µg/mL	>32 µg/mL	>32 µg/mL	>32 µg/mL	2.35 µg/mL			>32 µg/mL	8 µg/mL	>32 µg/mL										
CCCCCCCCCCCCCCCC(=O)N[C@@H](CCCNC(=N)N)C(=O)NCC(=O)N[C@@H](CO)C(=O)N[C@@H](CCCNC(=N)N)C(=O)N[C@@H](CO)C(=O)NCC(=O)N[C@@H](CCC(N)=O)C(=O)N[C@@H](CO)C(=O)N[C@@H](CO)C(=O)N[C@@H](CCCNC(=N)N)C(=O)NCC(=O)N[C@@H](CCC(=O)O)C(=O)N[C@@H](CCCNC(=N)N)C(=O)N[C@@H](CCCNC(=N)N)C(=O)O [Pal-HR-1-11-2H2R-14] (Palmitoyl-RGSRSGQSSRGERR-OH)	8 µg/mL (≈ 4.41 µM)	4 µg/mL (≈ 2.2 µM)	>32 µg/mL	8 µg/mL (≈ 4.41 µM)				>32 µg/mL	8 µg/mL (≈ 4.41 µM)	>32 µg/mL										
CCCCCCCCCCCCCCCC(=O)NCC(=O)N[C@@H](CCN)C(=O)NCC(=O)N[C@@H](CCN)C(=O)O [Pal-G-Dab4] (Palmitoyl-G[Dab]G[Dab]-OH)	32 µg/mL (≈ 56.1 µM)	32 µg/mL (≈ 56.1 µM)	>32 µg/mL	>32 µg/mL	4.7 µg/mL			>32 µg/mL	16 µg/mL (≈ 28 µM)	>32 µg/mL										
CCCCCCCCCCCCCCCC(=O)NCC(=O)N[C@@H](CCCNC(=N)N)C(=O)N[C@@H](CCCNC(=N)N)C(=O)NCC(=O)NCC(=O)N[C@@H](CCCNC(=N)N)C(=O)O [Pal-GR6] (Palmitoyl-GRRGGR-OH)	16 µg/mL (≈ 17.9 µM)	>32 µg/mL	>32 µg/mL	>32 µg/mL	2.35 µg/mL	4.7 µg/mL		>32 µg/mL	16 µg/mL (≈ 17.9 µM)	>32 µg/mL										
SRRSSSLSRSSSRSSRSSSSSR [HR 1-18,4H-4R/9G-9S]					150 µg/mL								> 300 µg/mL	75 µg/mL	> 300 µg/mL	0.15 µg/mL	1.18 µg/mL			
CCCCCCCCCCCCCCCC(=O)NCC(=O)N[C@H](CCCNC(=N)N)C(=O)N[C@H](CCCNC(=N)N)C(=O)NCC(=O)NCC(=O)N[C@H](CCCNC(=N)N)C(=O)NCC(=O)NCC(=O)N[C@H](CCCNC(=N)N)C(=O)O [(D)-Pal-GR9] (Palmitoyl-G[dR][dR]GG[dR]GG[dR]-OH; C-terminus assumed)					0.15 µg/mL								2.35 µg/mL			0.038 µg/mL	0.59 µg/mL			
HAHSGHGQSTQRGSRTAGR [FLG-22082-2100]	>32 µg/mL	>32 µg/mL	>32 µg/mL	>32 µg/mL				>32 µg/mL	>32 µg/mL	>32 µg/mL						0.038 µg/mL				
CCCCCCCCCCCCCCCC(=O)N[C@@H](CO)C(=O)N[C@@H](Cc1c[nH]cn1)C(=O)N[C@@H](Cc1c[nH]cn1)C(=O)N[C@@H](CCCNC(=N)N)C(=O)N[C@@H](Cc1c[nH]cn1)C(=O)N[C@@H](Cc1ccccc1)C(=O)N[C@@H](CCCNC(=N)N)C(=O)N[C@@H](CO)C(=O)N[C@@H](Cc1c[nH]cn1)C(=O)N[C@@H](CCC(N)=O)C(=O)N[C@@H](CS)C(=O)N[C@@H](CCCNC(=N)N)C(=O)N[C@@H](CCCNC(=N)N)C(=O)O [Pal-LCE-3C55-67] (Palmitoyl-SHHRHFRSHQCRR-OH)	32 µg/mL (≈ 16.1 µM)	>32 µg/mL	>32 µg/mL	>32 µg/mL				16 µg/mL (≈ 8.07 µM)	1 µg/mL (≈ 0.504 µM)	>32 µg/mL										
CCCCCCCCCCCCCCCC(=O)NCC(=O)N[C@@H](Cc1c[nH]cn1)C(=O)N[C@@H](Cc1c[nH]cn1)C(=O)NCC(=O)NCC(=O)N[C@@H](Cc1c[nH]cn1)C(=O)NCC(=O)NCC(=O)N[C@@H](Cc1c[nH]cn1)C(=O)NCC(=O)N[C@@H](Cc1c[nH]cn1)C(=O)NCC(=O)N[C@@H](Cc1c[nH]cn1)C(=O)O [Pal-GH13] (Palmitoyl-GHHGGHGGHGHGH-OH; C-terminus assumed)					0.3 µg/mL								300 µg/mL			0.075 µg/mL	0.3 µg/mL	0.3 µg/mL	>300 µg/mL	complete loss of bactericidal activity
CCCCCCCCCCCCCCCC(=O)NCC(=O)N[C@H](CCCNC(=N)N)C(=O)NCC(=O)N[C@H](CCCNC(=N)N)C(=O)O [Pal-(D)-GR4] (Palmitoyl-G[dR]G[dR]-OH; C-terminus assumed)					18.75 µg/mL								37.5 µg/mL			18.75 µg/mL	150 µg/mL			
CCCCCCCCCCCCCCCC(=O)NCC(=O)N[C@@H](CCCCN)C(=O)N[C@@H](CCCCN)C(=O)NCC(=O)NCC(=O)N[C@@H](CCCCN)C(=O)NCC(=O)NCC(=O)N[C@@H](CCCCN)C(=O)NCC(=O)N[C@@H](CCCCN)C(=O)NCC(=O)N[C@@H](CCCCN)C(=O)O [Pal-K-GR13] (Palmitoyl-GKKGGKGGKGKGK-OH; C-terminus assumed)					0.59 µg/mL								>300 µg/mL			< 0.019 µg/mL	0.15 µg/mL			
